The nature of this data set: water contact angle testing of diamond surfaces. Particulars: diamond surface, Example 11, FIGS. 20A-20D; uncoated diamond approximately 65°. Format: physicochemical.
Source text: In some embodiments, water contact angle goniometry can be used to probe the surface properties and performance of the functionalized gemstones (e.g., of the diamond surface, of the surface after the anchor molecule is bound, and/or of the surface after the host molecule is bound forming an inclusion complex). In some embodiments, comparisons of water contact angle can be employed to analytically determine the specific coverage of adsorbed species pertaining to the anchor and to the host/guest complex. In some embodiments, water contact angle can be used to determine the durability of the gemstone coating by performing measurements at various stages of time after normal use after the host/guest inclusion complexes are formed. […]
(§1) Self-assembly of the β-cyclodextrin is analyzed with water contact angle. Angles will decrease according to the quantity of cyclodextrin residing on the substrate. The change in the refractive index of the surface after molecular coating is determined using optical ellipsometry. […]
as §1

Each structure is given as a SMILES string.

As to `OC[C@H]1O[C@@H]2O[C@H]3[C@H](O)[C@@H](O)[C@@H](O[C@H]4[C@H](O)[C@@H](O)[C@@H](O[C@H]5[C@H](O)[C@@H](O)[C@@H](O[C@H]6[C@H](O)[C@@H](O)[C@@H](O[C@H]7[C@H](O)[C@@H](O)[C@@H](O[C@H]8[C@H](O)[C@@H](O)[C@@H](O[C@H]1[C@H](O)[C@H]2O)O[C@@H]8CO)O[C@@H]7CO)O[C@@H]6CO)O[C@@H]5CO)O[C@@H]4CO)O[C@@H]3CO` [b-cyclodextrin, β-cyclodextrin], the contact angle is recorded as 61 °.

(Values after patent publication US12350708B2, “Molecular coatings and methods of making and using the same” (Glisten LLC, priority 2019, dated 2025).)
